pIC50: −log10 of the molar value. Where a name gives a salt, the structure may show the parent alone.
Target: T1, proton pump (H+/K+-ATPase) (Sus scrofa, UniProt P19156)
T1 construct: Gastric vesicles were prepared from hog stomach via centrifugal separation; from tissue; host or cells: hog stomach (gastric vesicles, method of Rabon et al. 1988)
Assay: Measurement of inhibitory effects on proton pump (H+/K+-ATPase) activities
Type: biochemical
Details: hog gastric vesicles, K+-specific H+/K+-ATPase activity, Tris-HCl buffer pH 7.4, 37° C. for 40 minutes, malachite green Pi readout
Protocol: 1) Preparation of Gastric Vesicles
Gastric vesicles were prepared from hog stomach via centrifugal separation (Edd C. Rabon et al., Preparation of Gastric H^+,K^+-ATPase, Methods in enzymology, vol. 157 Academic Press Inc., (1988), pp. 649-654). The protein contents of the thus prepared gastric vesicles were quantitated by Bicinchoninic Acid (BCA) kit.
2) Measurement of Inhibitory Effects on Proton Pump (H^+/K^+-ATPase) Activities
The inhibitory effects of the compounds of the present invention against proton pump activities were measured using a 96-well plate. In this assay, the K^+-specific H^+/K^+-ATPase activities were calculated based on the difference between the H^+/K^+-ATPase activity in the presence of K^+ and that in the absence of K. In the 96-well plate, 0.5% dimethyl sulfoxide (DMSO) in buffer was added to the negative and positive control groups, and the diluted compounds of the present invention were added to the test groups. All assays were performed in a reaction volume of 100 μl at room temperature. The reaction buffer solution (60 mmol/l Tris-HCl buffer, pH 7.4) including the hog gastric vesicles was added with DMSO and the compounds at various concentrations, and then further added with 10 μl of 10 mmol/1 adenosine triphosphate Tris buffer solution (60 mmol/l Tris-HCl buffer, pH 7.4) to initiate an enzyme reaction. […] The amount of monophosphate (Pi) in the reaction was measured at 570 nm using a micro plate reader (FLUOstar Omega, BMG LABTECH). The inhibition rates (%) were determined from the activity values of control groups and those of test compounds at various concentrations, and the […] of the test compounds were calculated based on the respective inhibition value (%) using the Logistic 4-parameter function of Sigmaplot 8.0 program.

T1 sequence (P19156 whole entry): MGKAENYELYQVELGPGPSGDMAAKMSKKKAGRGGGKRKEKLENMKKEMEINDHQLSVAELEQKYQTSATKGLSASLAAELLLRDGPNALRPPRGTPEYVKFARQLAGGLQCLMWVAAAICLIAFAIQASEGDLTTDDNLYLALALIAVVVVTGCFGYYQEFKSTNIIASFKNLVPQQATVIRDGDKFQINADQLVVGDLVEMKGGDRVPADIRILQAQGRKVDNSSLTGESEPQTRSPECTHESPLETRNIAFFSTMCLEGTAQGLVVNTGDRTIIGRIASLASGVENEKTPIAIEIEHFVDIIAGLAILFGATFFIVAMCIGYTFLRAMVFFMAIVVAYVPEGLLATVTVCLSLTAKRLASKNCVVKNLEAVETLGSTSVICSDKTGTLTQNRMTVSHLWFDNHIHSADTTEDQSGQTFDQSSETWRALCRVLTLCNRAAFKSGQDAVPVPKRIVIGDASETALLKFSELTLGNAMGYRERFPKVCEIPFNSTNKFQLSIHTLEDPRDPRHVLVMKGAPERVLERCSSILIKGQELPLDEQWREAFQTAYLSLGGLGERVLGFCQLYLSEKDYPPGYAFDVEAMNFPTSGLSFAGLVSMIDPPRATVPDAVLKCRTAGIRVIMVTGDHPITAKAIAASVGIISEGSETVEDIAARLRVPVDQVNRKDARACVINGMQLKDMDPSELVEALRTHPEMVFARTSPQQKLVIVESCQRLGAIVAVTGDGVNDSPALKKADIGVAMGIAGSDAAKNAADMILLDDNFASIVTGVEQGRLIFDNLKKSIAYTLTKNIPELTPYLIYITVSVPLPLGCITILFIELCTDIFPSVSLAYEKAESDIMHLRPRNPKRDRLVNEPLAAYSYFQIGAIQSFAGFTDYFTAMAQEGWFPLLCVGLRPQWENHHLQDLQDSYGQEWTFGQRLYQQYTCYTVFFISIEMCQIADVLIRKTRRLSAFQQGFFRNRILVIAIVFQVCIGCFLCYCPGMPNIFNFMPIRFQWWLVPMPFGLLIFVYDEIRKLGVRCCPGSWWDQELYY
T1 sequence (P18434 whole entry partner): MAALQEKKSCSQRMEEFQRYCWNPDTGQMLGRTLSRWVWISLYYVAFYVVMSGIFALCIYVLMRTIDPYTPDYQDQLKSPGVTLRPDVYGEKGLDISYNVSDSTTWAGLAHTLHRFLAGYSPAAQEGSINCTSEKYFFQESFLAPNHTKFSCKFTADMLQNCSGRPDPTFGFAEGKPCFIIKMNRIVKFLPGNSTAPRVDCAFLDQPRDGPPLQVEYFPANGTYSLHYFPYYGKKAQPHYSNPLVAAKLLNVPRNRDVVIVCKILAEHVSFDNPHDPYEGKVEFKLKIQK

Row | pIC50 | SMILES
1 | 6.42 | CNCc1cn(S(=O)(=O)c2cccc(F)c2)c2cc(Nc3ccc(Cl)cc3C)cnc12 [Example 341, N-(4-chloro-2-methylphenyl)-1-((3-fluorophenyl)sulfonyl)-3-((methylamino)methyl)-1H-pyrrolo[3,2-b]pyridin-6-amine hydrochloride]
2 | 6.03 | CNCc1cn(S(=O)(=O)c2cccc(OC(F)F)c2)c2cc(Cc3ccc(C)c(F)c3F)ccc12 [Example 290, 1-(6-(2,3-difluoro-4-methylbenzyl)-1-((3-(difluoromethoxy)phenyl)sulfonyl)-1H-indol-3-yl)-N-methylmethanamine]
3 | 6.32 | CNCc1cn(S(=O)(=O)c2cccnc2)c2cc(Nc3ccc([N+](=O)[O-])cc3Cl)ccc12 [Example 41, N-(2-chloro-4-nitrophenyl)-3-((methylamino)methyl)-1-(pyridin-3-ylsulfonyl)-1H-indol-6-amine hydrochloride]
4 | 4.70 | CNC(=O)c1cn(S(=O)(=O)c2cccc(C(F)(F)F)c2)c2cc(Nc3ccc(OC)nc3Cl)ccc12 [Example 320, 6-((2-chloro-6-methoxypyridin-3-yl)amino)-N-methyl-1-((3-(trifluoromethyl)phenyl)sulfonyl)-1H-indol-3-carboxamide]
5 | 6.43 | CNCc1cn(S(=O)(=O)c2cccc(F)c2)c2cc(Nc3ccc(C)cc3F)cnc12 [Example 339, N-(2-fluoro-4-methylphenyl)-1-((3-fluorophenyl)sulfonyl)-3-((methylamino)methyl)-1H-pyrrolo[3,2-b]pyridin-6-amine hydrochloride]
6 | 6.22 | CNCc1cn(S(=O)(=O)c2cccc(OC(F)F)c2)c2cc(Cc3ccc(C)cc3Cl)ccc12 [Example 304, 1-(6-(2-chloro-4-methylbenzyl)-1-((3-(difluoromethoxy)phenyl)sulfonyl)-1H-indol-3-yl)-N-methylmethanamine]
7 | 6.21 | CNCc1cn(S(=O)(=O)c2cccc(OC(F)(F)F)c2)c2cc(Cc3ccc(C)cc3Cl)ccc12 [Example 305, 1-(6-(2-chloro-4-methylbenzyl)-1-((3-(trifluoromethoxy)phenyl)sulfonyl)-1H-indol-3-yl)-N-methylmethanamine]
8 | 6.60 | CNCc1cn(S(=O)(=O)c2cccnc2)c2cc(Nc3ccccc3F)ccc12 [Example 3, N-(2-fluorophenyl)-3-((methylamino)methyl)-1-(pyridin-3-ylsulfonyl)-1H-indol-6-amine hydrochloride]
9 | 4.71 | CNCc1cn(S(=O)(=O)c2cccnc2)c2cc(Oc3cc(Cl)ncn3)ccc12 [Example 314, 1-(6-((6-chloropyrimidin-4-yl)oxy)-1-(pyridin-3-ylsulfonyl)-1H-indol-3-yl)-N-methylmethanamine hydrochloride]
10 | 6.10 | CNCc1cn(S(=O)(=O)c2cccnc2)c2cc(Nc3ncccc3Cl)ccc12 [Example 100, N-(3-chloropyridin-2-yl)-3-((methylamino)methyl)-1-(pyridin-3-ylsulfonyl)-1H-indol-6-amine hydrochloride]
11 | 6.47 | CNCc1cn(S(=O)(=O)c2cccnc2)c2cc(Nc3ccc(C#N)cc3C)ccc12 [Example 36, 3-methyl-4-((3-((methylamino)methyl)-1-(pyridin-3-ylsulfonyl)-1H-indol-6-yl)amino)benzonitrile hydrochloride]
12 | 6.24 | CNCc1cn(S(=O)(=O)c2cccc(Cl)c2)c2cc(Nc3ccc(Cl)cc3F)ccc12 [Example 150, N-(4-chloro-2-fluorophenyl)-1-((3-chlorophenyl)sulfonyl)-3-((methylamino)methyl)-1H-indol-6-amine hydrochloride]
13 | 5.89 | CNCc1cn(S(=O)(=O)c2cccc(OC(F)F)c2)c2cc(Nc3ccc(C)nc3F)ccc12 [Example 181, 1-((3-(difluoromethoxy)phenyl)sulfonyl)-N-(2-fluoro-6-methylpyridin-3-yl)-3-((methylamino)methyl)-1H-indol-6-amine hydrochloride]
14 | 4.70 | CNCc1cn(S(=O)(=O)c2cccnc2)c2cc(-c3cncnc3)ccc12 [Example 258, N-methyl-1-(1-(pyridin-3-ylsulfonyll)-6-(pyrimidin-5-yl)-1H-indol-3-yl)methanamine hydrochloride]
15 | 5.93 | CNCc1cn(S(=O)(=O)c2cccnc2)c2cc(Cc3ccc(Cl)cc3F)ccc12 [Example 274, 1-(6-(4-chloro-2-fluorobenzyl)-1-(pyridin-3-ylsulfonyl)-1H-indol-3-yl)-N-methylmethanamine hydrochloride]

Second part, the compound before the results:

Row | SMILES | pIC50
16 | CNCc1cn(S(=O)(=O)c2cccc(C(F)(F)F)c2)c2cc(Cc3ccc(C)cc3Cl)ccc12 [Example 302, 1-(6-(2-chloro-4-methylbenzyl)-1-((3-(trifluoromethyl)phenyl)sulfonyl)-1H-indol-3-yl)-N-methylmethanamine] | 6.49
17 | CNCc1cn(S(=O)(=O)c2cccnc2)c2cc(Nc3ccc(F)c(F)c3)ccc12 [Example 62, N-(3,4-difluorophenyl)-3-((methylamino)methyl)-1-(pyridin-3-ylsulfonyl)-1H-indol-6-amine hydrochloride] | 6.03
18 | CNCc1cn(S(=O)(=O)c2cccc(C(F)(F)F)c2)c2cc(Nc3ccc(C(F)(F)F)cc3Cl)ccc12 [Example 187, N-(2-chloro-4-(trifluoromethyl)phenyl)-3-((methylamino)methyl)-1-((3-(trifluoromethyl)phenyl)sulfonyl)-1H-indol-6-amine hydrochloride] | 6.01
19 | CNCc1cn(S(=O)(=O)c2cccnc2)c2cc(Nc3ccc(O)cc3C)ccc12 [Example 47, 3-methyl-4-((3-((methylamino)methyl)-1-(pyridin-3-ylsulfonyl)-1H-indol-6-yl)amino)phenol hydrochloride] | 6.08
20 | CNCc1cn(S(=O)(=O)c2cccnc2)c2cc(Nc3ccc(C)cc3C)ccc12 [Example 21, N-(2,4-dimethylphenyl)-3-((methylamino)methyl)-1-(pyridin-3-ylsulfonyl)-1H-indol-6-amine hydrochloride] | 6.68
21 | CNCc1cn(S(=O)(=O)c2cccnc2)c2cc(Nc3ccc(OC)cc3C(F)(F)F)ccc12 [Example 51, N-(4-methoxy-2-(trifluoromethyl)phenyl)-3-((methylamino)methyl)-1-(pyridin-3-ylsulfonyl)-1H-indol-6-amine hydrochloride] | 5.92
22 | CCOc1ccc(Nc2ccc3c(CNC)cn(S(=O)(=O)c4cccnc4)c3c2)c(F)c1F [Example 71, N-(4-ethoxy-2,3-difluorophenyl)-3-((methylamino)methyl)-1-(pyridin-3-ylsulfonyl)-1H-indol-6-amine hydrochloride] | 6.37
23 | CNCc1cn(S(=O)(=O)c2cccnc2)c2cc(Nc3cc(Cl)cnc3C)ccc12 [Example 126, N-(5-chloro-2-methylpyridin-3-yl)-3-((methylamino)methyl)-1-(pyridin-3-ylsulfonyl)-1H-indol-6-amine hydrochloride] | 6.29
24 | CNCc1cn(S(=O)(=O)c2cccc(OC(F)(F)F)c2)c2cc(Nc3ccc(C(F)(F)F)cc3Cl)ccc12 [Example 198, N-(2-chloro-4-(trifluoromethyl)phenyl)-3-((methylamino)methyl)-1-((3-(trifluoromethoxy)phenyl)sulfonyl)-1H-indol-6-amine hydrochloride] | 6.80
25 | CNCc1cn(S(=O)(=O)c2cccnc2)c2cc(Nc3c(C)ccnc3Cl)ccc12 [Example 127, N-(2-chloro-4-methylpyridin-3-yl)-3-((methylamino)methyl)-1-(pyridin-3-ylsulfonyl)-1H-indol-6-amine hydrochloride] | 6.19
26 | CNCc1cn(S(=O)(=O)c2cccc(C(F)(F)F)c2)c2cc(Cc3ccc(OC)nc3Cl)ccc12 [Example 294, 1-(6-((2-chloro-6-methoxypyridin-3-yl)methyl)-1-((3-(trifluoromethyl)phenyl)sulfonyl)-1H-indol-3-yl)-N-methylmethanamine hydrochloride] | 6.20
27 | CNCc1cn(S(=O)(=O)c2cccnc2)c2cc(Nc3c(F)cc(Cl)cc3F)ccc12 [Example 86, N-(4-chloro-2,6-difluorophenyl)-3-((methylamino)methyl)-1-(pyridin-3-ylsulfonyl)-1H-indol-6-amine hydrochloride] | 6.19
28 | CNCc1cn(S(=O)(=O)c2cccnc2)c2cc(Oc3ncc(C(F)(F)F)cc3Cl)ccc12 [Example 312, 1-(6-((3-chloro-5-(trifluoromethyl)pyridin-2-yl)oxy)-1-(pyridin-3-ylsulfonyl)-1H-indol-3-yl)-N-methylmethanamine hydrochloride] | 6.18
29 | CNCc1cn(S(=O)(=O)c2cccnc2)c2cc(-c3ccc(OC)cc3)ccc12 [Example 251, 1-(6-(4-methoxyphenyl)-1-(pyridin-3-ylsulfonyl)-1H-indol-3-yl)-N-methylmethanamine hydrochloride] | 5.59
